Assay [1] deals with T1, PTP1B-CASA-mut2 (Homo sapiens, UniProt P18031, C215A/K39E/K41R/L37F/S216A).
T1 construct: PTP1B (1–321) and TCPTP (1–317) cloned in pET21b vector were used as templates; made in house; host or cells: E. coli BL21 (DE3)-RIL
T1 sequence (P18031 1-321 L37F/K39E/K41R/C215A/S216A limits assumed): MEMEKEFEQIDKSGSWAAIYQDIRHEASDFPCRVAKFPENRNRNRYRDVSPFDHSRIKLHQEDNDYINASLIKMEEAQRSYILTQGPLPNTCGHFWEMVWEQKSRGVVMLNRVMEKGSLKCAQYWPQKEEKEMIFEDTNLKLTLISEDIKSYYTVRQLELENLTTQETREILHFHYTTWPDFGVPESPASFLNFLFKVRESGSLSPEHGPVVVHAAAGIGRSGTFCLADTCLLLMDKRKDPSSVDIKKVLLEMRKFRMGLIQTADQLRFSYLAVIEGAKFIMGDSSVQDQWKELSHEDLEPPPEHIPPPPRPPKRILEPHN
The experiment in a line: isothermal titration calorimetry. Type of assay: binding. To be noted: two independent experiments. The procedure:
(§1) The studies were performed using a VP-ITC system from GE Healthcare. All titrations were performed at 25°C in de-gassed buffer (50 mM HEPES pH 7.0, 100 mM NaCl, 2 % DMSO, and 1 mM TCEP). The protein concentrations of PTP1B-CASA and PTP1B-CASA-mut2 were each 50 μM. Protein samples used in ITC were dialyzed completely against the buffer. Inhibitor (10 mM) in DMSO was diluted to make a stock solution of 0.2 mM in de-gassed buffer, which was then used as titrant in the syringe. The instrument was calibrated by using the heat of dilution of NaCl in water. […] The heat of ligand dilution was corrected by subtracting the average heat of injection after saturation. Origin software was used to fit and analyze the data.
For orientation: In ITC the heat of successive injections is recorded.

Assay [2] has as its target T2, PTP1B-CASA (Homo sapiens, UniProt P18031, C215A/S216A).
T2 construct: PTP1B (1–321) and TCPTP (1–317) cloned in pET21b vector were used as templates; 6xHis (C); made in house; host or cells: E. coli BL21 (DE3)-RIL
T2 sequence (P18031 1-321 C215A/S216A limits assumed): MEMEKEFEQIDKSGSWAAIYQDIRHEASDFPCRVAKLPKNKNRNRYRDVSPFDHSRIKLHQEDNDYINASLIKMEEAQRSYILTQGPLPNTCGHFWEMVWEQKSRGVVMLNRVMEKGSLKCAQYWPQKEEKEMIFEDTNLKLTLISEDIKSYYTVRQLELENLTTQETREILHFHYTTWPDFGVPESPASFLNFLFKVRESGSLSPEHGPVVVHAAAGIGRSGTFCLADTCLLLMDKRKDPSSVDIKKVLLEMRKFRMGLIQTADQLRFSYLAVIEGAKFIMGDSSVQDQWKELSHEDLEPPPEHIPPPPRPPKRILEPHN
The experiment in a line: isothermal titration calorimetry. Type of assay: binding. To be noted: 25°C. The procedure:
as §1

Assay [3] has as its system TCPTP. Further details: method as in PMID 21962515. To be noted: oxidized or reduced states; cited from earlier work.
For assay [4], the target named is T3, reversibly oxidized PTP1B-mut2 (L37F/K39E/K41R) (Homo sapiens, UniProt P18031, K39E/K41R/L37F).
T3 construct: PTP1B (1–321) and TCPTP (1–317) cloned in pET21b vector were used as templates; 6xHis (C); made in house; host or cells: E. coli BL21 (DE3)-RIL
T3 sequence (P18031 1-321 L37F/K39E/K41R): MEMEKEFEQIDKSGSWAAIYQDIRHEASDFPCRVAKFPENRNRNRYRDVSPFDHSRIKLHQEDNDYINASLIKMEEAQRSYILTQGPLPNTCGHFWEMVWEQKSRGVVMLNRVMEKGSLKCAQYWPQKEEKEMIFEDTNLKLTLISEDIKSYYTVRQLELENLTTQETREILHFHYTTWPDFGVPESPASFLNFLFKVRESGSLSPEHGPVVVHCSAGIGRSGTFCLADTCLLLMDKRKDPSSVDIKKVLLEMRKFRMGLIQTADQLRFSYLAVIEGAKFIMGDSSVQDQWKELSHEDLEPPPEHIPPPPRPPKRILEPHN
Description: in vitro binding assay (anti-HA co-immunoprecipitation). The procedure:
(§2) Purified proteins (wt or mutant form of PTP1B or TCPTP (50 nM)) were reversibly oxidized with […] H2O2 followed by a buffer exchange using 0.5 mL Zeba spin desalting columns 7K MWCO (Thermo Fisher Scientific) to remove H2O2. Increasing concentration of purified HA-tagged scFv45 (0–10 µM) was incubated with oxidized proteins in binding buffer (20 mM HEPES, pH 7.4, 300 mM NaCl, 0.05% BSA, 0.05% Tween-20) for 2 h at 4 °C. Anti-HA agarose (Roche, 50% slurry equilibrated in the binding buffer) was added and incubated for 1 h at 4 °C. Protein complexes bound to anti-HA beads were immunoprecipitated and washed three times; first with lysis buffer followed by two more washes with wash buffer (25 mM HEPES, 100 mM NaCl pH 7.4, 0.05% BSA, 0.05% Tween-20, and protease inhibitors). The complexes were separated by SDS-PAGE and analyzed by immunoblotting.

For assay [5], the target named is T4, reversibly oxidized TCPTP-mut2 (F39L/E41K/R43K) (Homo sapiens, UniProt P17706, E41K/F39L/R43K).
T4 construct: PTP1B (1–321) and TCPTP (1–317) cloned in pET21b vector were used as templates; 6xHis (C); made in house; host or cells: E. coli BL21 (DE3)-RIL
T4 sequence (P17706 1-317 F39L/E41K/R43K): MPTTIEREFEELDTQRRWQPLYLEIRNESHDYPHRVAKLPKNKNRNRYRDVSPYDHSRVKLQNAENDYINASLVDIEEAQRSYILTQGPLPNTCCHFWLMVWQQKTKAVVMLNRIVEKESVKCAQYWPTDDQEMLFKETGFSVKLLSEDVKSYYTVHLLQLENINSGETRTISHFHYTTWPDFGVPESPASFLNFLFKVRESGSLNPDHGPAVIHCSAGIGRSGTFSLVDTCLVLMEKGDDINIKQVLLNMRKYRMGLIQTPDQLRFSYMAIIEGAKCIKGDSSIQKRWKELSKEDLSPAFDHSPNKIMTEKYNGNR
The description is as above. The procedure: as §2

“And” between values parts separate entries of the source, which are not always exact repeats. Identical values can stand only once. “Also recorded” adds a separate entry of the source. Like-named read-outs stand apart in the source and are kept apart here.

With `COc1ccc2c(c[n+](C)c3c4cc5c(cc4ccc23)OCO5)c1OC` [chelerythrine], the “binding to PTP1B-CASA-mut2 by ITC” value in assay [1] is recorded as “No apparent binding; also recorded: did not detect saturable binding”. In addition, the Kd is 3 µM in assay [2] (read-out: binding constant for PTP1B-CASA by ITC); 3.25 µM and 2.83 µM and 3.44 µM in assay [2] (independent experiments, read-out: affinity for PTP1B-CASA by ITC).

B1: scFv45: recombinant conformation-sensor single-chain variable fragment antibody recognizing oxidized PTP1B (antibody, V domains shown)
VH: TVTLDESGGGLQAPGGALSLVCKASGFTFSSYDMGWIRQAPGKGLEYVAGITDNGRYASYGSAVDGRATISRDNGQSSVRLQLNNLRAEDTGTYYCARDDGSGWTGNSIDAWGHGTEVIVSE
VL: ALTQPSSVSANPGGTVKITCSGSSSAYGYGWYQQKSPGSAPVTVIYNNNKRPSNIPSRFSGSKSGSTGTLTITGVQAEDEAVYFCGSEDSSTDAIFGAGTTLTVL
For B1, in assay [3], the “binding to TCPTP” value is “does not bind”. Further, the “binding to reversibly oxidized PTP1B-mut2” value in assay [4] is recorded as “did not bind; also recorded: abrogated”. Besides, the “binding to reversibly oxidized TCPTP-mut2” value in assay [5] is “promote binding”.

The values are drawn from article PMC5773487, “Harnessing insulin- and leptin-induced oxidation of PTP1B for therapeutic development” (Nature Communications, 2018).
